# Measurements from patent US20230150980A1, “COLLAGEN 1 TRANSLATION INHIBITORS AND METHODS OF USE THEREOF” (Anima Biotech Inc., priority 2020, published 2023).
# Counter-ions that a name gives are not always drawn.
# System: collagen 1
# Test: WI-38 collagen 1 inhibition assay (anti-Collagen I immunofluorescence);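 further: minus sign means inactive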
# Assay type: cell-based
# Conditions: cellular EC50, WI-38 human lung fibroblasts, values are LogEC50 classes
# Experimental: WI-38 cells (ATCC® CCL-75™) were maintained in MEM EAGLE (NEAA) W. GLUTAMIN (Biological Industries, Cat. 06-1040-15-1A) containing 10% fetal bovine serum (FBS) and 1% Penicillin-Streptomycin Solution. To synchronize the cells (cell cycle synchronization) prior to induction of collagen synthesis, the cells were starved using DMEM-low glucose supplemented with 0.25% FBS for two hours and then without FBS for 24 hours. To induce collagen synthesis, the cells were treated with a collagen induction cocktail for the indicated time. Compounds were added with induction.
# Cells in 96-well or 384-well plates were fixed for 20 min in 4% paraformaldehyde (PFA, ENCO, Cat. sc-281692). Following two washes with 1×PBS, cells were treated with hydrogen peroxide (Acros, Cat: 7722-84-1) for 10 minutes and then washed twice with 1×PBS. Cells were then incubated over-night at 4° C. with Anti-Collagen I (Sigma-Aldrich, Cat: C 2456) antibody and washed three times with 1×PBS. Cell were then incubated with a suitable secondary fluorescently-tagged antibody and nuclei stained with DAPI, for 1 hour, and then washed 3 times with 1×PBS.
# Cell images were taken with Operetta (Perkin Elmer, USA), a wide-field fluorescence microscope at 20× magnification. After acquisition, the images were transferred to Columbus software (Perkin-Elmer) for image analysis. In Columbus, cells were identified by their nucleus, using the “Find Nuceli” module and cytoplasm was detected based on the secondary antibody channel. Subsequently, the fluorescent signal was enumerated in the identified cell region. Data was exported to a data analysis and visualization software, Tibco Spotfire, USA.
row,Compound,COL1 Efficacy (LogEC50)
1,"c1ccc2[nH]c(CN3CCN(c4cncnc4)CC3)cc2c1 [compound 278, 2-[(4-pyrimidin-5-ylpiperazin-1-yl)methyl]-1H-indole formate]",−
2,"c1ccc2[nH]c(CN3CCN(c4ccnnc4)CC3)cc2c1 [compound 279, 2-[(4-pyridazin-4-ylpiperazin-1-yl)methyl]-1H-indole formate]",−
3,"N#Cc1c(CN2CCN(c3ccncc3)CC2)[nH]c2ccccc12 [compound 280, 2-[[4-(4-pyridyl)piperazin-1-yl]methyl]-1H-indole-3-carbonitrile]",−
4,"c1ccc2oc(CN3CCN(c4ccncn4)CC3)nc2c1 [compound 281, 2-[(4-pyrimidin-4-ylpiperazin-1-yl)methyl]-1,3-benzoxazole hemiformate]",+ (+: >−5)
5,"c1ccc2oc(CN3CCN(c4ccncc4)CC3)nc2c1 [compound 282, 2-[[4-(4-pyridyl)piperazin-1-yl]methyl]-1,3-benzoxazole formate]",+ (+: >−5)
6,"c1ccn2nc(CN3CCN(c4ccncc4)CC3)cc2c1 [compound 283, 2-((4-(pyridin-4-yl)piperazin-1-yl)methyl)pyrazolo[1,5-a]pyridine 2,2,2-trifluoroacetate]",−
7,"c1cnc2cc(CN3CCN(c4ccncc4)CC3)[nH]c2c1 [compound 284, 2-[[4-(4-pyridyl)piperazin-1-yl]methyl]-1H-pyrrolo[3,2-b]pyridine]",−
8,"c1ccc2[nH]c(CN3C[C@@H]4CN(c5ccncc5)C[C@@H]4C3)cc2c1 [compound 285, 2-[[(3aS,6aR)-5-(4-pyridyl)-1,3,3a,4,6,6a-hexahydropyrrolo[3,4-c]pyrrol-2-yl]methyl]-1H-indole]",−
9,"COCCOCc1cncnc1N1CCN(Cc2cc3ccccc3[nH]2)CC1 [compound 287, 2-((4-(5-((2-methoxyethoxy)methyl)pyrimidin-4-yl)piperazin-1-yl)methyl)-1H-indole]",−
10,"Cn1cc(N2CCN(Cc3cc4ccccc4[nH]3)CC2)nn1 [compound 288, 2-((4-(1-methyl-1H-1,2,3-triazol-4-yl)piperazin-1-yl)methyl)-1H-indole]",++ (++: −5 to −6)
11,"CCc1cncnc1N1CCN(Cc2nc3ccc(COCCOC)cc3[nH]2)CC1 [compound 289, 2-((4-(5-ethylpyrimidin-4-yl)piperazin-1-yl)methyl)-6-((2-methoxyethoxy)methyl)-1H-benzo[d]imidazole]",+++ (+++: <−6)
12,"CCc1cncnc1N1CCN(Cc2nc3ccc(OCCOC)cc3[nH]2)CC1 [compound 290, 2-((4-(5-ethylpyrimidin-4-yl)piperazin-1-yl)methyl)-6-(2-methoxyethoxy)-1H-benzo[d]imidazole]",++ (++: −5 to −6)
13,"CCc1cncnc1N1CCN(Cc2cc3ccc(COCCOC)cc3[nH]2)CC1 [compound 291, 2-((4-(5-ethylpyrimidin-4-yl)piperazin-1-yl)methyl)-6-((2-methoxyethoxy)methyl)-1H-indole]",+++ (+++: <−6)
14,"CCc1cncnc1N1CCN(Cc2cc3ccc(OCCOC)cc3[nH]2)CC1 [compound 292, 2-((4-(5-ethylpyrimidin-4-yl)piperazin-1-yl)methyl)-6-(2-methoxyethoxy)-1H-indole]",++ (++: −5 to −6)
15,"Cc1ncnc(N2CCN(Cc3nc4c(F)cccc4o3)CC2)c1C [compound 293, 2-((4-(5,6-dimethylpyrimidin-4-yl)piperazin-1-yl)methyl)-4-fluorobenzo[d]oxazole]",++ (++: −5 to −6)
16,"Cc1ncnc(N2CCN(Cc3nc4c(C(F)(F)F)cccc4o3)CC2)c1C [compound 295, 2-((4-(5,6-dimethylpyrimidin-4-yl)piperazin-1-yl)methyl)-4-(trifluoromethyl)benzo[d]oxazole]",+++ (+++: <−6)
17,"Cc1ncnc(N2CCN(Cc3nc4cc(F)ccc4o3)CC2)c1C [compound 297, 2-((4-(5,6-dimethylpyrimidin-4-yl)piperazin-1-yl)methyl)-5-fluorobenzo[d]oxazole]",++ (++: −5 to −6)
18,"Cc1ncnc(N2CCN(Cc3nc4cc(C(F)(F)F)ccc4o3)CC2)c1C [compound 299, 2-((4-(5,6-dimethylpyrimidin-4-yl)piperazin-1-yl)methyl)-5-(trifluoromethyl)benzo[d]oxazole]",+++ (+++: <−6)
19,"Cc1ncnc(N2CCN(Cc3nc4ccc(F)cc4o3)CC2)c1C [compound 301, 2-((4-(5,6-dimethylpyrimidin-4-yl)piperazin-1-yl)methyl)-6-fluorobenzo[d]oxazole]",+++ (+++: <−6)
20,"Cc1ncnc(N2CCN(Cc3nc4ccc(Cl)cc4o3)CC2)c1C [compound 302, 6-chloro-2-((4-(5,6-dimethylpyrimidin-4-yl)piperazin-1-yl)methyl)benzo[d]oxazole]",+++ (+++: <−6)

row,Compound,COL1 Efficacy (LogEC50)
1,"Cc1ncnc(N2CCN(Cc3nc4ccc(C(F)(F)F)cc4o3)CC2)c1C [compound 303, 2-((4-(5,6-dimethylpyrimidin-4-yl)piperazin-1-yl)methyl)-6-(trifluoromethyl)benzo[d]oxazole]",+++ (+++: <−6)
2,"Cc1ncnc(N2CCN(Cc3nc4ccc(C(F)F)cc4o3)CC2)c1C [compound 304, 6-(difluoromethyl)-2-((4-(5,6-dimethylpyrimidin-4-yl)piperazin-1-yl)methyl)benzo[d]oxazole]",+++ (+++: <−6)
3,"Cc1ncnc(N2CCN(Cc3nc4cccc(F)c4o3)CC2)c1C [compound 305, 2-((4-(5,6-dimethylpyrimidin-4-yl)piperazin-1-yl)methyl)-7-fluorobenzo[d]oxazole]",++ (++: −5 to −6)
4,"Cc1ncnc(N2CCN(Cc3nc4cccc(C(F)(F)F)c4o3)CC2)c1C [compound 307, 2-((4-(5,6-dimethylpyrimidin-4-yl)piperazin-1-yl)methyl)-7-(trifluoromethyl)benzo[d]oxazole]",++ (++: −5 to −6)
5,"Cc1ncnc(N2CCN(Cc3nc4ccccc4o3)CC2)c1F [compound 309, 2-((4-(5-fluoro-6-methylpyrimidin-4-yl)piperazin-1-yl)methyl)benzo[d]oxazole]",++ (++: −5 to −6)
6,"Cc1ncnc(N2CCN(Cc3nc4ccccc4o3)CC2)c1Cl [compound 310, 2-((4-(5-chloro-6-methylpyrimidin-4-yl)piperazin-1-yl)methyl)benzo[d]oxazole]",++ (++: −5 to −6)
7,"Cc1ncnc(N2CCN(Cc3nc4ccccc4o3)CC2)c1C(F)(F)F [compound 311, 2-((4-(6-methyl-5-(trifluoromethyl)pyrimidin-4-yl)piperazin-1-yl)methyl)benzo[d]oxazole]",+ (+: >−5)
8,Fc1cncnc1N1CCN(Cc2nc3ccccc3o2)CC1 [compound 313],+ (+: >−5)
9,"Clc1cncnc1N1CCN(Cc2nc3ccccc3o2)CC1 [compound 314, 2-((4-(5-chloropyrimidin-4-yl)piperazin-1-yl)methyl)benzo[d]oxazole]",++ (++: −5 to −6)
10,"FC(F)(F)c1cncnc1N1CCN(Cc2nc3ccccc3o2)CC1 [compound 315, 2-((4-(5-(trifluoromethyl)pyrimidin-4-yl)piperazin-1-yl)methyl)benzo[d]oxazole]",+ (+: >−5)
11,"Cc1ncnc(N2CCN(C3(c4nc5ccccc5o4)CC3)CC2)c1C [compound 321, 2-(1-(4-(5,6-dimethylpyrimidin-4-yl)piperazin-1-yl)cyclopropyl)benzo[d]oxazole]",++ (++: −5 to −6)
12,Cn1cc(N2CCN(Cc3nc4ccccc4o3)CC2)nn1 [compound 322],+ (+: >−5)
13,Cn1cc(N2CCN(Cc3nc4ccc(F)cc4o3)CC2)nn1 [compound 323],−
14,"Cn1ccc(N2CCN(Cc3nc4ccccc4o3)CC2)n1 [compound 324, 2-((4-(1-methyl-1H-pyrazol-3-yl)piperazin-1-yl)methyl)benzo[d]oxazole]",+ (+: >−5)
15,Cn1nccc1N1CCN(Cc2nc3ccccc3o2)CC1 [compound 325],−
16,"Cn1cnc(N2CCN(Cc3nc4ccccc4o3)CC2)n1 [compound 326, 2-((4-(1-methyl-1H-1,2,4-triazol-3-yl)piperazin-1-yl)methyl)benzo[d]oxazole]",+ (+: >−5)
17,"Cc1ncnc(N2CCN(Cc3nc4ccc(F)cc4o3)CC2)c1Cl [compound 327, 2-((4-(5-chloro-6-methylpyrimidin-4-yl)piperazin-1-yl)methyl)-6-fluorobenzo[d]oxazole]",++ (++: −5 to −6)
18,CCn1cc(N2CCN(Cc3nc4ccccc4o3)CC2)nn1 [compound 328],−
19,"Cc1ncnc(N2CCN(Cc3nc4ccc(F)cc4o3)CC2)c1C#N [compound 329, 4-(4-((6-fluorobenzo[d]oxazol-2-yl)methyl)piperazin-1-yl)-6-methylpyrimidine-5-carbonitrile]",++ (++: −5 to −6)
20,"Cc1ncnc(N2CCN(Cc3nc4ccncc4o3)CC2)c1C [compound 330, 2-((4-(5,6-dimethylpyrimidin-4-yl)piperazin-1-yl)methyl)oxazolo[5,4-c]pyridine]",++ (++: −5 to −6)
